Series [1] addresses T1, Dual specificity mitogen-activated protein kinase kinase 3 (Homo sapiens) (UniProt P46734).
T1 sequence (whole entry): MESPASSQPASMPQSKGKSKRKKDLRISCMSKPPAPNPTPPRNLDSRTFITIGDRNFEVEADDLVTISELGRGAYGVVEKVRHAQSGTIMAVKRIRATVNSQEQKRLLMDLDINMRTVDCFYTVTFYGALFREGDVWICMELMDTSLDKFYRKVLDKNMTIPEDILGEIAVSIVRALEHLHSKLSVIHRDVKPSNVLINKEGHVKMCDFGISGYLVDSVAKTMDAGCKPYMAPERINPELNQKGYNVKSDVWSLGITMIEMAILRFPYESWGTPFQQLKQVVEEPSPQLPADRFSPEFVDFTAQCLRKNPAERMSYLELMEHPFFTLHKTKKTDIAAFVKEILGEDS
Description: Inhibition of MAP2K3 in human HeLa cells lysate at 10 uM pre incubated for 15 mins followed by ADP acyl phosphate probe addition and measured after 10 mins by LC-MS/MS analysis relative to control. To be noted: time 25.0 min. In kind it is subcellular.

The target in series [2] is Serine/threonine-protein kinase MARK2 (Homo sapiens, UniProt Q7KZI7). Description: Inhibition of MARK2 in human HeLa cells lysate pre incubated for 15 mins followed by ADP acyl phosphate probe addition and measured after 10 mins by LC-MS/MS analysis. In kind it is subcellular.
Chain of Serine/threonine-protein kinase MARK2 (Q7KZI7 whole entry): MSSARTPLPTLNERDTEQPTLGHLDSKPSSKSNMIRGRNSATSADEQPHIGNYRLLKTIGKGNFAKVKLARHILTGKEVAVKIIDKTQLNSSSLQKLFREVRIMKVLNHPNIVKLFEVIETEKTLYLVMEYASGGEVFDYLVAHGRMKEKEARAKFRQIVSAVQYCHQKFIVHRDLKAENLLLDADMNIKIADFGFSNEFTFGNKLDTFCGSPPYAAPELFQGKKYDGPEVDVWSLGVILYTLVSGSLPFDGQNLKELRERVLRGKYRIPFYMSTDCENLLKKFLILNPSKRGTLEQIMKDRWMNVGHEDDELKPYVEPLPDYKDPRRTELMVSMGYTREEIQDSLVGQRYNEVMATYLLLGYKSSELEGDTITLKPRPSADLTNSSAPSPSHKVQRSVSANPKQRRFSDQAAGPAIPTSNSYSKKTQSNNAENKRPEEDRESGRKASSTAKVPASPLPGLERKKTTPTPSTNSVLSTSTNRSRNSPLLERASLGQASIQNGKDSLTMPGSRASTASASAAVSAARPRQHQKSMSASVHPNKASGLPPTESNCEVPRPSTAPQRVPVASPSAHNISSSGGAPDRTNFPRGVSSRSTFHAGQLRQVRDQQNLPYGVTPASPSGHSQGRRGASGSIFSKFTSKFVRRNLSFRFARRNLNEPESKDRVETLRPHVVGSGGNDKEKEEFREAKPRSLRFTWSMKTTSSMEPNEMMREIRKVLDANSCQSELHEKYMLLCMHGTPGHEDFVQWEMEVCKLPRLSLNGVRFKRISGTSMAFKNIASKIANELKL
For series [3], the target named is T2, Scaffold protein ILK (Homo sapiens) (UniProt Q13418).
T2 sequence (whole entry): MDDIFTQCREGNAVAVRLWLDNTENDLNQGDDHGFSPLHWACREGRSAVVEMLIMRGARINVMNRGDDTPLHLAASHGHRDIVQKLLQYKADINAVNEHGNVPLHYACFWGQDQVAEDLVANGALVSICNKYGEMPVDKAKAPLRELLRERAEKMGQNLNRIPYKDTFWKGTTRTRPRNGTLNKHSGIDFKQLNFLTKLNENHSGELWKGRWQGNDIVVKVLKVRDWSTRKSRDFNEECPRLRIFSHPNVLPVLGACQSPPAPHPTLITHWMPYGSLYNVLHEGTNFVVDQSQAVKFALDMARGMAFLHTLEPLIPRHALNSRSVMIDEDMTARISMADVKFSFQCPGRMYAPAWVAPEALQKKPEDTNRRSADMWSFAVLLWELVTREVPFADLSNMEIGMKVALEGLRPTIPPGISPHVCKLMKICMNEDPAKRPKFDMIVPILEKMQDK
Description: Inhibition of ILK in human HeLa cells lysate at 2 uM pre incubated for 15 mins followed by ATP acyl phosphate probe addition and measured after 10 mins by LC-MS/MS analysis relative to control. In kind it is subcellular. To be noted: time 25.0 min.

For series [4], the target named is Interferon-induced, double-stranded RNA-activated protein kinase (Homo sapiens, UniProt P19525). Description: Inhibition of PKR in human HeLa cells lysate at 50 uM pre incubated for 15 mins followed by ADP acyl phosphate probe addition and measured after 10 mins by LC-MS/MS analysis relative to control. As to conditions: time 25.0 min. In kind it is subcellular.
Chain of Interferon-induced, double-stranded RNA-activated protein kinase (P19525 whole entry): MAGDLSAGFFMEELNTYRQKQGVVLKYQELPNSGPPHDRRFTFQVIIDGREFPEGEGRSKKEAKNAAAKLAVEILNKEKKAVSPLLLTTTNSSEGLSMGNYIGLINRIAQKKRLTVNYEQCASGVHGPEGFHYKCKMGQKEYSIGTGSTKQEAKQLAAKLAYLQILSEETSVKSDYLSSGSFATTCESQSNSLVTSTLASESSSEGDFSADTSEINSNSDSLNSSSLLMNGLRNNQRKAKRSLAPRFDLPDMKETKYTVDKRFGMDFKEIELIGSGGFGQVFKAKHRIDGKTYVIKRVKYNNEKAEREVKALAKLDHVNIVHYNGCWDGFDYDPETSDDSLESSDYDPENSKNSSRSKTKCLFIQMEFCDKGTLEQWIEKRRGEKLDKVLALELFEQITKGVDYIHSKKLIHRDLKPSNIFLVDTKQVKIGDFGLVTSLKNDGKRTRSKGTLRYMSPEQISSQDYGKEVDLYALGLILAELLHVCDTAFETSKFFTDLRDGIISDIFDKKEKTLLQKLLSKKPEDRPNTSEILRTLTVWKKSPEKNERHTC

Series [5] is described as follows: Inhibition of MSK1/2 in human HeLa cells lysate pre incubated for 15 mins followed by ATP acyl phosphate probe addition and measured after 10 mins by LC-MS/MS analysis. In kind it is subcellular.
In series [6] the target is T3, Mitogen-activated protein kinase kinase kinase 7 (Homo sapiens) (UniProt O43318).
T3 sequence (whole entry): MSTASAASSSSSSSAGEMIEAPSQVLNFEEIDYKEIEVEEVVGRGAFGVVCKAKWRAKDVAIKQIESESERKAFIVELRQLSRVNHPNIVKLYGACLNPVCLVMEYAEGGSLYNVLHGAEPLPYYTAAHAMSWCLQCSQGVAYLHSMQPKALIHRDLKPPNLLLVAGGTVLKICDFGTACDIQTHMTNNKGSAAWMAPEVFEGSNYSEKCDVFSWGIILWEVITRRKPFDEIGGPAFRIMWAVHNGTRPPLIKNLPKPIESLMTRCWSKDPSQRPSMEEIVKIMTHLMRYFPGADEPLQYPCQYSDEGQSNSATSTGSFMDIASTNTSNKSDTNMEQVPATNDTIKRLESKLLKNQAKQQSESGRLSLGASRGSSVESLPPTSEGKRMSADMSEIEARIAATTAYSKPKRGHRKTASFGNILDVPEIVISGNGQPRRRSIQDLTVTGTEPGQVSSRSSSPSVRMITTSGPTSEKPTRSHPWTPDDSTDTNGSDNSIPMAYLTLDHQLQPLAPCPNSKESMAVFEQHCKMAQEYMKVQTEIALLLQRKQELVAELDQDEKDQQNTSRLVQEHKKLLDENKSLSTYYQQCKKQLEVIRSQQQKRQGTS
Description: Inhibition of TAK1 in human HeLa cells lysate at 10 uM pre incubated for 15 mins followed by ATP acyl phosphate probe addition and measured after 10 mins by LC-MS/MS analysis relative to control. It is filed as subcellular. As to conditions: time 25.0 min.

For series [7], the target named is Phosphatidylinositol 5-phosphate 4-kinase type-2 beta (Homo sapiens, UniProt P78356). Description: Inhibition of PIP5K2B in human HeLa cells lysate pre incubated for 15 mins followed by ATP acyl phosphate probe addition and measured after 10 mins by LC-MS/MS analysis. It is filed as subcellular.
Chain of Phosphatidylinositol 5-phosphate 4-kinase type-2 beta (P78356 whole entry): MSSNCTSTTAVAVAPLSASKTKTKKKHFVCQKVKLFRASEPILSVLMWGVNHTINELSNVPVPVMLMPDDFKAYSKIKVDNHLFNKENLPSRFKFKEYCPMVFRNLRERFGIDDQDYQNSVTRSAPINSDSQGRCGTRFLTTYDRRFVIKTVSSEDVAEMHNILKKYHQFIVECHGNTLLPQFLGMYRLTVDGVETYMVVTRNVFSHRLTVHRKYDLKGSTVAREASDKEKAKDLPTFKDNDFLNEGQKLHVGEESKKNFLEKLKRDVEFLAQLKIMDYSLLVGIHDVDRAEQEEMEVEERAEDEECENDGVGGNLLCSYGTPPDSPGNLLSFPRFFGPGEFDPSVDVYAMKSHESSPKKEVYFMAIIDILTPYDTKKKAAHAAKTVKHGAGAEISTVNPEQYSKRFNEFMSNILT
A short description of series [8]: Half life in Sprague-Dawley rat at 1 mg/kg, iv measured up to 8 hrs by LC-MS/MS analysis. As to conditions: in vivo. In kind it is ADME, organism-based.
In series [9] the target is T4, Dual specificity mitogen-activated protein kinase kinase 7 (Homo sapiens) (UniProt O14733).
T4 sequence (whole entry): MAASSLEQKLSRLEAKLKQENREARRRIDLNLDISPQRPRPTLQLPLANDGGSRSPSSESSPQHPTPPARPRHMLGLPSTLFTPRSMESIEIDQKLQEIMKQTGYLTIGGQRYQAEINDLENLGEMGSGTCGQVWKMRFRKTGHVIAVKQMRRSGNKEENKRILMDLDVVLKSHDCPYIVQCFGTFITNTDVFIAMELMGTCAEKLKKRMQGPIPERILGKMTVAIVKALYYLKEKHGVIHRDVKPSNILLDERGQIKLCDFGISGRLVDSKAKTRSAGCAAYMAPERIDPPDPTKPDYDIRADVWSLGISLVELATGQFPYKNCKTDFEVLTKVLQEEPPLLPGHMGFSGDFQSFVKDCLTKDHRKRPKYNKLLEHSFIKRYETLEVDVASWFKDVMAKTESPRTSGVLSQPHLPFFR
Description: Inhibition of MAP2K7 in human HeLa cells lysate at 50 uM pre incubated for 15 mins followed by ADP acyl phosphate probe addition and measured after 10 mins by LC-MS/MS analysis relative to control. In kind it is subcellular. To be noted: time 25.0 min.

For series [10], the target named is Ribosomal protein S6 kinase alpha-3 (Homo sapiens, UniProt P51812). Description: Inhibition of RSK2 domain 1 in human HeLa cells lysate pre incubated for 15 mins followed by ADP acyl phosphate probe addition and measured after 10 mins by LC-MS/MS analysis. It is filed as subcellular.
Chain of Ribosomal protein S6 kinase alpha-3 (P51812 whole entry, the tested form may be a part): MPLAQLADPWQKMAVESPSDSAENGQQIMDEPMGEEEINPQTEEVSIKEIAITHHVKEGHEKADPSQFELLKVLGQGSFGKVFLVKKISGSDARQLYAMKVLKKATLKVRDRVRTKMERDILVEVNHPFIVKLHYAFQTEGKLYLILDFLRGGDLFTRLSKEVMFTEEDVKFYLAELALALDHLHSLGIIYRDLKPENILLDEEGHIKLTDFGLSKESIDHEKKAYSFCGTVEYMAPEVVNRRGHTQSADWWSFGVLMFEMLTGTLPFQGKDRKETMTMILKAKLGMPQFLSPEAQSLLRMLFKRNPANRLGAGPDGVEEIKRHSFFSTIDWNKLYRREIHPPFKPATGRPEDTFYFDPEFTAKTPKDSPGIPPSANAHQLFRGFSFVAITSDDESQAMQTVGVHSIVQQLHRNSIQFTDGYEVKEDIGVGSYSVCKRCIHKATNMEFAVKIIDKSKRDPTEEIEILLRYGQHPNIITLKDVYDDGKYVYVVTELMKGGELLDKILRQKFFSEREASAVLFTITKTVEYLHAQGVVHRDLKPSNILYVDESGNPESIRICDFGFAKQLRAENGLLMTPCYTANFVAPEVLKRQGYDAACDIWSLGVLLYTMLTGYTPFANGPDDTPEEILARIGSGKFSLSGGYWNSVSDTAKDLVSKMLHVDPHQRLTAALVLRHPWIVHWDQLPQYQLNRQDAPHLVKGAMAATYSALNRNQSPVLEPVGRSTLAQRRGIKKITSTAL
Series [11] is described as follows: Inhibition of Wnk1/2/4 in human HeLa cells lysate pre incubated for 15 mins followed by ATP acyl phosphate probe addition and measured after 10 mins by LC-MS/MS analysis. It is filed as subcellular.
Another series has as its target Insulin receptor (Homo sapiens, UniProt P06213). Description: Inhibition of INSR in human HeLa cells lysate at 10 uM pre incubated for 15 mins followed by ADP acyl phosphate probe addition and measured after 10 mins by LC-MS/MS analysis relative to control. In kind it is subcellular. As to conditions: time 25.0 min.

Structures are written as SMILES.

Chain of Insulin receptor (P06213 28-758 limits assumed): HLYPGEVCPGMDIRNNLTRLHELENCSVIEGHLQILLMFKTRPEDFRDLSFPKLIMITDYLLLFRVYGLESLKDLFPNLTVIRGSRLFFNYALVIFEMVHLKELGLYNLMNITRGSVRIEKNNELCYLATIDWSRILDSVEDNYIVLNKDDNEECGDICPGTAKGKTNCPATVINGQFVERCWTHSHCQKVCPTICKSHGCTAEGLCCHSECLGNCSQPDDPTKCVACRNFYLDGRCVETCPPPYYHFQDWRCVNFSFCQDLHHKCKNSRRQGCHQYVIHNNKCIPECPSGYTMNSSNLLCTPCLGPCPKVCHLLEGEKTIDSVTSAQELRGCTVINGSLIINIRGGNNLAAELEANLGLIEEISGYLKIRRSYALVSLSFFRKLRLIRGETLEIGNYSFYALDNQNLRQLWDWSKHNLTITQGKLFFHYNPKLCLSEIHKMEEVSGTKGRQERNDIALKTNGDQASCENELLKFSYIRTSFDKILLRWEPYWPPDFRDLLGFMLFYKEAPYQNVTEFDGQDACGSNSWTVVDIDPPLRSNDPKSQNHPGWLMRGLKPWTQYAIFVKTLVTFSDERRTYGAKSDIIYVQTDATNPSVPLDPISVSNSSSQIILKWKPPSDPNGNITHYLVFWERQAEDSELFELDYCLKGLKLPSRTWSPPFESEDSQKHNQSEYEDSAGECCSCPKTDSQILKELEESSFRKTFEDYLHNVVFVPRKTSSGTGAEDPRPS
Chain of Insulin receptor (P06213 763-1382 limits assumed): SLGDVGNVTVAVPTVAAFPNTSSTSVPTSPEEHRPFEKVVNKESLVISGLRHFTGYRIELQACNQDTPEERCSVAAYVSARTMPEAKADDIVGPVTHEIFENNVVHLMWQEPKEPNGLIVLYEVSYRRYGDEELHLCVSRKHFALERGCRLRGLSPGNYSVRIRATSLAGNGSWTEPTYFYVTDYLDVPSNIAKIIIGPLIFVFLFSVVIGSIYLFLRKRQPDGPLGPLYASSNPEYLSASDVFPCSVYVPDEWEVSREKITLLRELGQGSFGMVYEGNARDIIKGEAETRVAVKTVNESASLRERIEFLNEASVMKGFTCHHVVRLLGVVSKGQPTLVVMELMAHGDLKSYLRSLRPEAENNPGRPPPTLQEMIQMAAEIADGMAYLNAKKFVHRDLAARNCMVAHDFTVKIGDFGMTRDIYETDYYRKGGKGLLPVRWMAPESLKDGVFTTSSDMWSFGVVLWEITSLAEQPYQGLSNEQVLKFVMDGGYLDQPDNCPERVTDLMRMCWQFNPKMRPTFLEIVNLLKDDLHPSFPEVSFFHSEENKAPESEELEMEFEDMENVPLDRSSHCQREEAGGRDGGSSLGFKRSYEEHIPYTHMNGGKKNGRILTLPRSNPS

The term inhibition denotes the change of the read-out against control, counted positive when it falls. Broadly, the IC50 is the concentration that gives 50% inhibition. Broadly, the half-life is how long it takes for the measured level to halve. A lower half-life goes with fast loss. With `CCOc1cc(N2CCC(O)CC2)ccc1Nc1ncc2c(n1)N(C)c1ccccc1C(=O)N2C`, the inhibition in [1] is -9.7%; in series [3], 13.4%; in [4], -8.7%; in [6] it was 21.2%; in [9], 4.2%; against Insulin receptor, -8%. The IC50 in [2], in series [5], in series [7], in [10] and in series [11] was > 50 µM in each case. In [8], the half-life was 2 h.

The values are drawn from ChEMBL document CHEMBL5661979, “Pharmacological inhibition of BMK1 suppresses tumor growth through promyelocytic leukemia protein” (Cancer Cell, 2010).
